Assay results: patent US9884823B2, “Oxime ether acetate compound, preparation method therefor and weeding application thereof” (ZHEJIANG UNIVERSITY OF TECHNOLOGY, priority 2014, dated 2018)
Read-outs that look alike come from different tables or passages of the source.

How the values were obtained:
Wheat = test: Culture dish method (general screening); format: in vivo; settings: 100 mg/L, 7 days
Excerpt: (§3) Culture dish method (general screening): The test targets were radish, cucumber, rape, wheat, sorghum and barnyard grass; the seeds of wheat, sorghum and radish were germinated in advance, and the uniform emerge-germinating seeds were used in the test.

Radish = test: Culture dish method (general screening); format: in vivo; settings: 100 mg/L, 7 days
Excerpt: as §3

Barnyardgrass = test: Culture dish method (general screening); format: in vivo, barnyard grass; settings: 100 mg/L, 7 days
Excerpt: as §3

Chinese sorghum = test: Culture dish method (general screening); format: in vivo; settings: 100 mg/L, 7 days
Excerpt: as §3

Cucumber = test: Culture dish method (general screening); format: in vivo; settings: 100 mg/L, 7 days
Excerpt: as §3

Rape = test: Culture dish method (general screening); format: in vivo; settings: 100 mg/L, 7 days
Excerpt: as §3

[1] = test system: broadleaf weeds such as mustard, small quinoa, Abutilon, Amaranthus retroflexus and Eclipta prostrate; settings: 150 g a.i./ha; for herbicidal activity on broadleaf weeds targets: 30 days after administration, Table 9 summary; for activity on the growth of broadleaf weeds: postemergence spraying, 30 days, vs clear water control
Excerpt: (§1) The raw drug which was selected from the compounds in table 1 was weighed using an analytical balance (0.0001 g), and dissolved in DMF containing 1 wt % Tween-80 emulsifier to prepare a mother liquor of raw drug with a mass concentration of 1.0˜5.0%, and then diluted with distilled water, to prepare preparations at desired concentrations according to the ratio of ingredients in Examples 8, 9 and 10.
(§2) The test targets were mustard, small quinoa, Abutilon, amaranthus retroflexus, Eclipta prostrata, crabgrass, dog point. A pot with a diameter of 7.5 cm was used, filled with composite soil (garden soil:nursery matrix, 1:2, v/v) to ¾ of the pot, then the above […] kinds of weeds targets were directly seeded (germination rate ≧85%), covered with soil at a thickness of 0.2 cm. When the weeds grew to 3-leaf stage, pre-emergence soil treatment for weeds planting, and then spraying was performed.

Small quinoa = settings: 150 g a.i./ha, 30 days, Table 9
Excerpt: as §1, §2

[2] = test system: grass weeds such as crabgrass, barnyard grass, dog point; settings: 150 g a.i./ha; for activity for grass targets such as crabgrass and dog point: 30 days after administration, Table 9 summary; for activity on grass weeds such as crabgrass, dog point: postemergence spraying, 30 days
Excerpt: as §1, §2

Mustard = settings: 150 g a.i./ha, 30 days, Table 9
amaranthus retroflexus = test: Potted plants live body test; format: in vivo; settings: 150 g a.i./ha, 30 days, Table 9
Excerpt: as §1, §2

Crabgrass = test: Potted plants live body test; format: in vivo; settings: 150 g a.i./ha, 30 days, Table 9
Excerpt: as §1, §2

Dog point = test: Potted plants live body test; format: in vivo; settings: 150 g a.i./ha, 30 days, Table 9
Excerpt: as §1, §2

Abutilon = test: Potted plants live body test; format: in vivo; settings: 150 g a.i./ha, 30 days, Table 9
Excerpt: as §1, §2

Eclipta prostrata = test: Potted plants live body test; format: in vivo; settings: 150 g a.i./ha, 30 days, Table 9
Excerpt: as §1, §2

SMILES | inhibition rate, Wheat Root (Wheat) | inhibition rate, Wheat Stem (Wheat) | inhibition rate, Radish Root (Radish) | inhibition rate, Radish Stem (Radish) | inhibition rate, Barnyardgrass Root (Barnyardgrass) | inhibition rate, Barnyardgrass Stem (Barnyardgrass) | inhibition rate, Chinese sorghum Root (Chinese sorghum) | inhibition rate, Chinese sorghum Stem (Chinese sorghum) | inhibition rate, Cucumber Root (Cucumber) | inhibition rate, Cucumber Stem (Cucumber) | inhibition rate, Rape Root (Rape) | inhibition rate, Rape Stem (Rape) | other results
CON=C(C(=O)OC)c1ccccc1COc1cccc(-c2ccccn2)c1 [Compound 4] | 0% | 0% | 50% | 30% | 30% | 30% | 0% | 0% | 30% | 0% | 30% | 0% | –
CON=C(C(=O)OC)c1ccccc1COc1ccc(-c2ccccn2)cc1 [Compound 7] | 20% | 0% | 20% | 0% | 50% | 20% | 0% | 0% | 30% | 0% | 60% | 30% | –
CON=C(C(=O)OC)c1ccccc1COc1cccc(-c2ccc(Cl)cn2)c1 [Compound 19] | 30% | 0% | 80% | 80% | 70% | 30% | 80% | 30% | 90% | 70% | 100% | 100% | herbicidal activity on broadleaf weeds targets [1]: herbicidal activity; activity on the growth of broadleaf weeds [1]: inhibitory activity; efficiency, Small quinoa (Small quinoa; Postemergence spraying): 60%; efficiency, Small quinoa (Small quinoa; Pre-emergence soil treatment): 25%; activity for grass targets such as crabgrass and dog point [2]: poor activity; activity on grass weeds such as crabgrass, dog point [2]: almost have no activity; efficiency, Mustard (Mustard; Postemergence spraying): 50%; efficiency, Mustard (Mustard; Pre-emergence soil treatment): 0%; efficiency, amaranthus retroflexus (amaranthus retroflexus; Postemergence spraying): 50%; efficiency, amaranthus retroflexus (amaranthus retroflexus; Pre-emergence soil treatment): 30%; efficiency, Crabgrass (Crabgrass; Postemergence spraying): 0%; efficiency, Crabgrass (Crabgrass; Pre-emergence soil treatment): 0%; efficiency, Dog point (Dog point; Postemergence spraying): 0%; efficiency, Dog point (Dog point; Pre-emergence soil treatment): 0%; efficiency, Abutilon (Abutilon; Postemergence spraying): 40%; efficiency, Abutilon (Abutilon; Pre-emergence soil treatment): 0%; efficiency, Eclipta prostrata (Eclipta prostrata; Postemergence spraying): 50%; efficiency, Eclipta prostrata (Eclipta prostrata; Pre-emergence soil treatment): 0%
CON=C(C(=O)OC)c1ccccc1COc1ccc(-c2ccc(Cl)cn2)cc1 [Compound 27] | 50% | 0% | 50% | 20% | 60% | 30% | 50% | 0% | 60% | 0% | 50% | 50% | herbicidal activity on broadleaf weeds targets [1]: herbicidal activity; activity on the growth of broadleaf weeds [1]: inhibitory activity; efficiency, Small quinoa (Small quinoa; Postemergence spraying): 60%; efficiency, Small quinoa (Small quinoa; Pre-emergence soil treatment): 25%; activity for grass targets such as crabgrass and dog point [2]: poor activity; activity on grass weeds such as crabgrass, dog point [2]: almost have no activity; efficiency, Mustard (Mustard; Postemergence spraying): 80%; efficiency, Mustard (Mustard; Pre-emergence soil treatment): 30%; efficiency, amaranthus retroflexus (amaranthus retroflexus; Postemergence spraying): 80%; efficiency, amaranthus retroflexus (amaranthus retroflexus; Pre-emergence soil treatment): 50%; efficiency, Crabgrass (Crabgrass; Postemergence spraying): 0%; efficiency, Crabgrass (Crabgrass; Pre-emergence soil treatment): 0%; efficiency, Dog point (Dog point; Postemergence spraying): 0%; efficiency, Dog point (Dog point; Pre-emergence soil treatment): 0%; efficiency, Abutilon (Abutilon; Postemergence spraying): 60%; efficiency, Abutilon (Abutilon; Pre-emergence soil treatment): 0%; efficiency, Eclipta prostrata (Eclipta prostrata; Postemergence spraying): 80%; efficiency, Eclipta prostrata (Eclipta prostrata; Pre-emergence soil treatment): 0%
CON=C(C(=O)OC)c1ccccc1COc1ccc(-c2ccc(C(F)(F)F)cn2)cc1 [Compound 32] | 0% | 0% | 80% | 50% | 0% | 0% | 0% | 0% | 0% | 0% | 80% | 80% | –
CON=C(C(=O)OC)c1ccccc1COc1cccc(-c2ccnc(Cl)c2)c1 [Compound 67] | 30% | 0% | 50% | 50% | 50% | 0% | 50% | 50% | 50% | 0% | 50% | 30% | –
CON=C(C(=O)OC)c1ccccc1COc1ccc(-c2ccnc(Cl)c2)cc1 [Compound 75] | 0% | 0% | 0% | 0% | 30% | 30% | 0% | 0% | 30% | 0% | 0% | 0% | –
CON=C(C(=O)OC)c1ccccc1COc1cccc(-c2ncccc2C)c1 [Compound 83] | 60% | 20% | 50% | 50% | 80% | 0% | 80% | 30% | 80% | 30% | 80% | 50% | herbicidal activity on broadleaf weeds targets [1]: herbicidal activity; activity on the growth of broadleaf weeds [1]: inhibitory activity; efficiency, Small quinoa (Small quinoa; Postemergence spraying): 50%; efficiency, Small quinoa (Small quinoa; Pre-emergence soil treatment): 30%; activity for grass targets such as crabgrass and dog point [2]: poor activity; activity on grass weeds such as crabgrass, dog point [2]: almost have no activity; efficiency, Mustard (Mustard; Postemergence spraying): 0%; efficiency, Mustard (Mustard; Pre-emergence soil treatment): 0%; efficiency, amaranthus retroflexus (amaranthus retroflexus; Postemergence spraying): 20%; efficiency, amaranthus retroflexus (amaranthus retroflexus; Pre-emergence soil treatment): 20%; efficiency, Crabgrass (Crabgrass; Postemergence spraying): 0%; efficiency, Crabgrass (Crabgrass; Pre-emergence soil treatment): 0%; efficiency, Dog point (Dog point; Postemergence spraying): 0%; efficiency, Dog point (Dog point; Pre-emergence soil treatment): 0%; efficiency, Abutilon (Abutilon; Postemergence spraying): 30%; efficiency, Abutilon (Abutilon; Pre-emergence soil treatment): 0%; efficiency, Eclipta prostrata (Eclipta prostrata; Postemergence spraying): 0%; efficiency, Eclipta prostrata (Eclipta prostrata; Pre-emergence soil treatment): 0%
CON=C(C(=O)OC)c1ccccc1COc1cccc(-c2cc(C)ccn2)c1 [Compound 84] | 0% | 0% | 0% | 0% | 80% | 0% | 0% | 0% | 30% | 0% | 50% | 0% | –
CON=C(C(=O)OC)c1ccccc1COc1cccc(-c2ncc(Br)cc2[N+](=O)[O-])c1 [Compound 104] | 0% | 0% | 0% | 0% | 0% | 0% | 0% | 0% | 20% | 0% | 50% | 0% | –
CON=C(C(=O)OC)c1ccccc1COc1cccc(-c2c(Cl)cncc2Cl)c1 [Compound 110] | 0% | 0% | 0% | 0% | 0% | 0% | 0% | 0% | 20% | 0% | 20% | 0% | –
